Source: ChEMBL document CHEMBL5380795, “Design, Synthesis, and Bioactivity Investigation of Cyclic Lipopeptide Antibiotics Containing Eight to Nine Amino Acids” (J Med Chem, 2023)
In brackets after ≈: the same amount, converted by molar mass. Bridge positions count the residues as written; N and C are the ends. Square brackets hold non-standard residues; d marks the D form. Peptide text beside a SMILES is read from it. * marks the point of attachment. X1 = CC[C@H](C)CCCCC(=O)*; Dab = NCC[C@H](N)C(=O)O

How the values were obtained:
[1] = test system: Staphylococcus epidermidis; assay: Antibacterial activity against methicillin resistant Staphylococcus epidermidis clinical isolate 19-6 assessed as inhibition of bacterial growth incubated for 18 to 24 hrs by broth microdilution method; assay type: functional; conditions: time 18-24 hrs
[2] = Cytotoxicity against human HK-2 cells assessed as inhibition of cell growth incubated for 72 hrs by CCK-8 assay; assay type: toxicity, cell-based
Klebsiella pneumoniae [3] = assay: Antibacterial activity against carbapenem resistant Klebsiella pneumoniae clinical isolate 19-17 assessed as inhibition of bacterial growth incubated for 18 to 24 hrs by broth microdilution method; assay type: functional; conditions: time 18-24 hrs
Pseudomonas aeruginosa [4] = assay: Antibacterial activity against Pseudomonas aeruginosa clinical isolate 19-1 assessed as inhibition of bacterial growth incubated for 18 to 24 hrs by broth microdilution method; assay type: functional; conditions: time 18-24 hrs
Klebsiella pneumoniae [5] = assay: Antibacterial activity against KPC producing Klebsiella pneumoniae ATCC BAA-1705 assessed as inhibition of bacterial growth incubated for 18 to 24 hrs by broth microdilution method; assay type: functional; conditions: time 18-24 hrs
Escherichia coli [6] = assay: Antibacterial activity against KPC producing Escherichia coli ATCC BAA-2340 assessed as inhibition of bacterial growth incubated for 18 to 24 hrs by broth microdilution method; assay type: functional; conditions: time 18-24 hrs
Escherichia coli [7] = assay: Antibacterial activity against Escherichia coli NCTC 13353 assessed as inhibition of bacterial growth incubated for 18 to 24 hrs by broth microdilution method; assay type: functional; conditions: time 18-24 hrs
Staphylococcus aureus [8] = assay: Antibacterial activity against methicillin resistant Staphylococcus aureus ATCC 33591 assessed as inhibition of bacterial growth incubated for 18 to 24 hrs by broth microdilution method; assay type: functional; conditions: time 18-24 hrs
[9] = Selectivity index, ratio of IC50 for cytotoxicity against human HK-2 cells to MIC for antibacterial activity against Escherichia coli ATCC BAA-2523; assay type: toxicity, cell-based
Pseudomonas aeruginosa [10] = assay: Antibacterial activity against carbapenem resistant Pseudomonas aeruginosa clinical isolate 17-1 assessed as inhibition of bacterial growth incubated for 18 to 24 hrs by broth microdilution method; assay type: functional; conditions: time 18-24 hrs
[11] = test system: Staphylococcus epidermidis; assay: Antibacterial activity against methicillin resistant Staphylococcus epidermidis clinical isolate 19-5 assessed as inhibition of bacterial growth incubated for 18 to 24 hrs by broth microdilution method; assay type: functional; conditions: time 18-24 hrs
Pseudomonas aeruginosa [12] = assay: Antibacterial activity against Pseudomonas aeruginosa ATCC 27853 assessed as inhibition of bacterial growth incubated for 18 to 24 hrs by broth microdilution method; assay type: functional; conditions: time 18-24 hrs
Acinetobacter baumannii [13] = assay: Antibacterial activity against carbapenem resistant Acinetobacter baumannii clinical isolate 19-8 assessed as inhibition of bacterial growth incubated for 18 to 24 hrs by broth microdilution method; assay type: functional; conditions: time 18-24 hrs
Escherichia coli [14] = assay: Antibacterial activity against Escherichia coli ATCC BAA-2523 assessed as inhibition of bacterial growth incubated for 18 to 24 hrs by broth microdilution method; assay type: functional; conditions: time 18-24 hrs
Pseudomonas aeruginosa [15] = assay: Antibacterial activity against carbapenem resistant Pseudomonas aeruginosa clinical isolate 19-3 assessed as inhibition of bacterial growth incubated for 18 to 24 hrs by broth microdilution method; assay type: functional; conditions: time 18-24 hrs
Klebsiella pneumoniae [16] = assay: Antibacterial activity against carbapenem resistant Klebsiella pneumoniae clinical isolate 19-15 assessed as inhibition of bacterial growth incubated for 18 to 24 hrs by broth microdilution method; assay type: functional; conditions: time 18-24 hrs
Acinetobacter baumannii [17] = assay: Antibacterial activity against oxacillinase-27 producing Acinetobacter baumannii NCTC 13304 assessed as inhibition of bacterial growth incubated for 18 to 24 hrs by broth microdilution method; assay type: functional; conditions: time 18-24 hrs
Escherichia coli [18] = assay: Antibacterial activity against Escherichia coli clinical isolate 19-2 assessed as inhibition of bacterial growth incubated for 18 to 24 hrs by broth microdilution method; assay type: functional; conditions: time 18-24 hrs
Staphylococcus aureus [19] = assay: Antibacterial activity against Staphylococcus aureus ATCC 29213 assessed as inhibition of bacterial growth incubated for 18 to 24 hrs by broth microdilution method; assay type: functional; conditions: time 18-24 hrs

Row | Compound | MIC [1] [µg/mL] | IC50 at 72 h [2] [µg/mL] | MIC (Klebsiella pneumoniae [3]) [µg/mL] | MIC (Pseudomonas aeruginosa [4]) [µg/mL] | MIC (Klebsiella pneumoniae [5]) [µg/mL] | MIC (Escherichia coli [6]) [µg/mL] | MIC (Escherichia coli [7]) [µg/mL] | MIC (Staphylococcus aureus [8]) [µg/mL] | selectivity ratio [9] | MIC (Pseudomonas aeruginosa [10]) [µg/mL] | MIC [11] [µg/mL] | MIC (Pseudomonas aeruginosa [12]) [µg/mL] | MIC (Acinetobacter baumannii [13]) [µg/mL] | MIC (Escherichia coli [14]) [µg/mL] | MIC (Pseudomonas aeruginosa [15]) [µg/mL] | MIC (Klebsiella pneumoniae [16]) [µg/mL] | MIC (Acinetobacter baumannii [17]) [µg/mL] | MIC (Escherichia coli [18]) [µg/mL] | MIC (Staphylococcus aureus [19]) [µg/mL]
1 | CCCCCCCCCC(=O)N[C@H](CCN)C(=O)N[C@H]1CCNC(=O)[C@H]([C@@H](C)O)NC(=O)[C@H](CCN)NC(=O)[C@H](CCN)NC(=O)[C@@H](CC(C)C)NC(=O)[C@@H](CC(C)C)NC(=O)[C@H](CCN)NC1=O | 32 (≈ 32.6 µM) | 87.5 (≈ 89.1 µM) | > 64 | 64 (≈ 65.2 µM) | > 64 | 64 (≈ 65.2 µM) | 64 (≈ 65.2 µM) | > 64 | 1.4 | 64 (≈ 65.2 µM) | 2 (≈ 2.04 µM) | 64 (≈ 65.2 µM) | > 64 | 64 (≈ 65.2 µM) | 64 (≈ 65.2 µM) | 64 (≈ 65.2 µM) | > 64 | 64 (≈ 65.2 µM) | > 64
2 | CCCCCCCCCC(=O)N[C@H](CCN)C(=O)N[C@H]1CCNC(=O)[C@H]([C@@H](C)O)NC(=O)[C@H](CCN)NC(=O)[C@H](CCN)NC(=O)[C@H](CC(C)C)NC(=O)[C@@H](CC(C)C)NC(=O)[C@H](CCCN)NC1=O | 32 (≈ 32.1 µM) | 277 (≈ 278 µM) | > 64 | > 64 | > 64 | > 64 | > 64 | > 64 | < 4.3 | > 64 | 4 (≈ 4.01 µM) | > 64 | > 64 | > 64 | > 64 | > 64 | > 64 | > 64 | > 64
3 | CCCCCCCCCC(=O)N[C@H](CCN)C(=O)N[C@H]1CNC(=O)[C@H]([C@@H](C)O)NC(=O)[C@H](CCN)NC(=O)[C@H](CCN)NC(=O)[C@H](CC(C)C)NC(=O)[C@@H](CC(C)C)NC(=O)[C@H](CCN)NC1=O | 32 (≈ 33 µM) | 68.6 (≈ 70.8 µM) | > 64 | > 64 | > 64 | > 64 | > 64 | > 64 |  | > 64 | 1 (≈ 1.03 µM) | > 64 | > 64 | < 64 | > 64 | > 64 | > 64 | > 64 | > 64
4 | CCCCCCCCCC(=O)N[C@H](CCN)C(=O)N[C@H]1CCNC(=O)[C@H]([C@@H](C)O)NC(=O)[C@H](CCN)NC(=O)[C@H](CCN)NC(=O)[C@H](CC(C)C)NC(=O)[C@@H](Cc2ccc(Cl)cc2)NC(=O)[C@H](CCN)NC1=O | 4 (≈ 3.81 µM) | 48.1 (≈ 45.8 µM) | 2 (≈ 1.9 µM) | 0.5 (≈ 0.476 µM) | 0.5 (≈ 0.476 µM) | 1 (≈ 0.952 µM) | 2 (≈ 1.9 µM) | 16 (≈ 15.2 µM) | 48.1 | 1 (≈ 0.952 µM) | 0.5 (≈ 0.476 µM) | 0.5 (≈ 0.476 µM) | 32 (≈ 30.5 µM) | 1 (≈ 0.952 µM) | 0.5 (≈ 0.476 µM) | 2 (≈ 1.9 µM) | 8 (≈ 7.61 µM) | 1 (≈ 0.952 µM) | 8 (≈ 7.61 µM)
5 | CCCCCCCCCC(=O)N[C@H](CCN)C(=O)N[C@H]1CCNC(=O)[C@H]([C@@H](C)O)NC(=O)[C@H](CCN)NC(=O)[C@H](CCN)NC(=O)[C@H](CC(C)C)NC(=O)[C@@H](Cc2ccc(Cl)c(Cl)c2)NC(=O)[C@H](CCN)NC1=O | 4 (≈ 3.69 µM) | 28.5 (≈ 26.3 µM) | 4 (≈ 3.69 µM) | 4 (≈ 3.69 µM) | 4 (≈ 3.69 µM) | 2 (≈ 1.84 µM) | 4 (≈ 3.69 µM) | 32 (≈ 29.5 µM) | 14.3 | 16 (≈ 14.7 µM) | 4 (≈ 3.69 µM) | 16 (≈ 14.7 µM) | 16 (≈ 14.7 µM) | 2 (≈ 1.84 µM) | 4 (≈ 3.69 µM) | 4 (≈ 3.69 µM) | 16 (≈ 14.7 µM) | 2 (≈ 1.84 µM) | 16 (≈ 14.7 µM)
6 | CCCCCCC[C@@H](O)CC(=O)N[C@H](CCN)C(=O)N[C@H]1CCNC(=O)[C@H]([C@@H](C)O)NC(=O)[C@H](CCN)NC(=O)[C@H](CCN)NC(=O)[C@H]([C@@H](C)O)NC(=O)[C@@H](CC(C)C)NC(=O)[C@H](CCN)NC1=O | > 64 | 411 (≈ 417 µM) | 64 (≈ 64.9 µM) | 0.5 (≈ 0.507 µM) | 4 (≈ 4.06 µM) | 4 (≈ 4.06 µM) | 16 (≈ 16.2 µM) | > 64 | 205 | 0.5 (≈ 0.507 µM) | > 64 | 0.25 (≈ 0.253 µM) | > 64 | 2 (≈ 2.03 µM) | 0.5 (≈ 0.507 µM) | 16 (≈ 16.2 µM) | > 64 | 16 (≈ 16.2 µM) | > 64
7 | CCCCCCCCCC(=O)N[C@@H](C(=O)N[C@H]1CCNC(=O)[C@H]([C@@H](C)O)NC(=O)[C@H](CCN)NC(=O)[C@H](CCN)NC(=O)[C@H](CC(C)C)NC(=O)[C@@H](CC(C)C)NC(=O)[C@H](CCN)NC1=O)[C@H](C)O | 64 (≈ 65.1 µM) | 240 (≈ 244 µM) | 64 (≈ 65.1 µM) | 16 (≈ 16.3 µM) | 32 (≈ 32.5 µM) | 64 (≈ 65.1 µM) | 64 (≈ 65.1 µM) | > 64 | 3.8 | 32 (≈ 32.5 µM) | 16 (≈ 16.3 µM) | 8 (≈ 8.14 µM) | > 64 | 64 (≈ 65.1 µM) | 32 (≈ 32.5 µM) | 64 (≈ 65.1 µM) | 64 (≈ 65.1 µM) | 32 (≈ 32.5 µM) | > 64
8 | CC[C@H](C)CCCCC(=O)N[C@@H](CCN)C(=O)N[C@H](C(=O)N[C@@H](CCN)C(=O)N[C@H]1CCNC(=O)[C@H]([C@@H](C)O)NC(=O)[C@H](CCN)NC(=O)[C@H](CCN)NC(=O)[C@H](CC(C)C)NC(=O)[C@@H](Cc2ccccc2)NC(=O)[C@H](CCN)NC1=O)[C@@H](C)O (X1-[Dab]T[Dab][Dab][Dab][dF]L[Dab][Dab]T; lactam 4-C) |  | 55.9 (≈ 46.4 µM) |  |  |  |  |  |  | > 932 |  |  |  |  |  |  |  |  |  | 
9 | CCCCCCCCCC(=O)N[C@H](CCN)C(=O)N[C@H]1CCNC(=O)[C@H]([C@@H](C)O)NC(=O)[C@H](CCN)NC(=O)[C@H](CCN)NC(=O)[C@H](CC(=O)O)NC(=O)[C@@H](CC(C)C)NC(=O)[C@H](CCN)NC1=O | > 64 | > 500 | > 64 | > 64 | > 64 | > 64 | > 64 | > 64 |  | > 64 | > 64 | > 64 | > 64 | > 64 | > 64 | > 64 | > 64 | > 64 | > 64
